Tests used:
[1] = test system: OCI-LY10-Luc CNS DLBCL xenograft; assay: OCI-LY10-Luc CNS lymphoma xenograft model (intracranial); format: in vivo, Nude (nu/nu) mice; settings: for % BLI Inhibition on Day 26 / Median Survival: 3 weeks; for % BLI Inhibition on Day 26: relative to vehicle control; for Median Survival: vehicle 35 days
Procedure: Antitumor activity of Compound 1 was evaluated as a single agent in OCI-LY10-luc diffuse large B-cell lymphoma (DLBCL) xenografted intracranially into nude mice as a model for central nervous system (CNS) lymphoma.
CNS lymphoma study was conducted with OCI-LY-10 cells transfected with luciferase (OCI-LY-10-Luc). Nude (nu/nu) mice were inoculated intracranially into the right cerebral hemisphere of the brain with OCI-LY10-Luc cells. Following inoculation of animals, the tumors were allowed to grow for 5 days. On day 5 following tumor cell inoculation, the mice were imaged using IVIS100 imaging system. The mice having tumors with an average flux ranging between 1×10^7 and 2×10^7 photons/sec were pooled together and randomized into various treatment groups. Compound 1 was formulated in 0.5% Methyl Cellulose, 0.25% Tween 80 and 50 mM Citrate pH 3 (MCT) in water. The animals were orally administered vehicle (MCT) or Compound 1 once daily (QD) for 3 weeks. Doses of Compound 1 ranged between 3 and 30 mg/kg. The positive control pomalidomide (30 mg/kg, QD) formulated in aqueous 0.5% CMC and 0.25% Tween-80 was administered PO. The animals were imaged for bioluminescence once a week using IVIS100 imaging system and monitored for survival. Statistical analysis was performed using a log-rank test between Compound 1-treated and vehicle-treated control groups.

[2] = test system: SUDHL-6 DLBCL xenograft tumors; assay: SUDHL-6 (DLBCL) xenograft model; format: in vivo, female SCID mice; settings: Compound 1 10 mg/kg oral, 5 days on 2 days off for 3 weeks, single agent
Procedure: Female 6- to 8-weeks-old CB17 SCID mice were obtained from Charles River Laboratories. Mice were housed in a barrier facility in micro-isolator cages at 10 animals per cage. Mice were fed with Harlan-Teklad LM-485 Mouse/Rat Sterilizable Diet and autoclaved water ad libitum and maintained on a 12 hours light-dark cycle. Animals were acclimatized to the animal housing facility for a period of 7 days before the beginning of the experiment. All animal studies were performed under protocols approved by Institutional Animal Care and Use Committees.
Suspensions of Compound 1 were pared in aqueous 0.5% Methyl Cellulose, 0.25% Tween 80 and 50 mM Citrate pH 3. […]
Tumor cells were injected subcutaneously in the flank region above the right hind legs of female CB17 SCID mice. […] Tumor volumes were determined before the initiation of treatment and were considered as the starting volumes. Tumors were measured twice a week for the duration of the study. The long and short axes of each tumor were measured using a digital caliper in millimeters. The tumor volumes were calculated using the formula: width^2×length/2. […]
Xenograft data are expressed as mean±SEM. […]
Xenograft study was conducted with female SCID mice bearing SUDHL-6 DLBCL xenograft tumors. […] Tumors were measured twice a week using calipers and tumor volumes were calculated using the formula of W^2×L/2. […]

[3] = test system: lymphoma cell lines WSU-DLCL2, SU-DHL6, and RL; assay: NK mediated cell killing (ADCC) with rituximab; format: cell-based, human; settings: NK cells pre-treated with Compound 1 100 nM 18 hours; rituximab 7.5 ug/mL, 4 hours
Procedure: Commercial purified NK cells isolated from human peripheral blood mononuclear cell (PBMC) were seeded at a concentration of 10^6 cells/mL, cultured in media supplemented with 10 ng/mLrhIL-2 and treated with Compound 1 (100 nM) for 18 hours at 37° C. prior to cytotoxicity assays. Target lymphoma cell lines were added to the pre-treated effector NK cells at a 1:10 (target:effector) cell ratio for WSU-DLCL2 and RL lines or 1:3 for SU-DHL6. At the time of co-culture, rituximab or isotype control at 7.5 ug/mL were added to the media and cells were incubated for 4 hours at 37° C. Then, cells were collected, stained with CD20, Annexin V and 7AAD and analyzed by FACS.

Compound: O=C1CC[C@H](N2C(=O)c3cccc(NCc4ccc(CN5CC(N6CCOCC6)C5)cc4F)c3C2=O)C(=O)N1 [Compound 1, (S)-2-(2,6-dioxopiperidin-3-yl)-4-((2-fluoro-4-((3-morpholinoazetidin-1-yl)methyl)benzyl)amino)isoindoline-1,3-dione]
- % BLI Inhibition on Day 26 ([1]; 3 mg/kg QD oral): 97.2%
- Median Survival ([1]; 3 mg/kg QD oral): 61 days
- % BLI Inhibition on Day 26 ([1]; 10 mg/kg QD oral): 99.1%
- Median Survival ([1]; 10 mg/kg QD oral): 69 days
- animals survived with no detectable bioluminescence signal ([1]; 10 mg/kg, day 120 (2/9)): 22.2%
- % BLI Inhibition on Day 26 ([1]; 30 mg/kg QD oral): 99.5%
- Median Survival ([1]; 30 mg/kg QD oral): 97 days
- animals survived with no detectable bioluminescence signal ([1]; 30 mg/kg, day 120 (3/9)): 33.3%
- tumor volume reduction [2]: 68%
- rituximab cytotoxicity of lymphoma cell lines (NK mediated cell killing, ADCC) [3]: able to increase rituximab cytotoxicity of lymphoma cell lines
